Patent publication US20040266862A1, “Method of improving animal tissue quality by supplementing the animal diet with mixed tocotrienols” (priority 2003, published 2004)
Marks after values point to notes of the source that are not given here.

Experiments:
swine [1] = experiment: 2000-2001 swine feed test: 24 hour raw pork loin pH; format: in vivo; details: for 24 hour raw pork loin pH, Increase vs. Control: overall ave.
Description: (§1) Applicants assessed the effects of antioxidant supplementation on meat quality in an experiment in which pork from pigs fed one of four dietary treatments was compared across three genetic lines differing in carcass leanness and intramuscular fat content. Ninety-six pigs were used in the test, thirty-two in each of the three genetic lines. Swine feeding was initiated in September 2000. At about 80 pounds body weight the 32 pigs of each of the three genetic lines were randomly allotted to individual pens. The pigs were fed corn/soy based diets formulated to provide adequate levels of all nutrients. In addition, one of four dietary treatments was assigned to each pen: control, 1,000 ppm NAC, 500 ppm LA and 150 ppm MT.
(§2) The pigs were harvested in November and December 2000 when they had reached an average weight of 260 pounds. Meat tissue quality evaluations occurred on Jan. 28, 2001. At the packing plant individual hot carcass weight, back fat depth and loin depth were measured and lean percent was calculated. Loin pH and loin color value (Minolta L*) were recorded 24 hours post mortem.

swine [2] = experiment: 2000-2001 swine feed test: raw pork loin color (Minolta L*); format: in vivo
Description: as §1, §2
Minolta L* color value was measured objectively using a Minolta colorimeter. The Minolta L* value is an indication of the lightness of the pork loin. A lower value indicates a darker color and thus, higher quality.

swine [3] = details: administered to swine; Berg, NPPC Project No. 99-164; cited from earlier work
[4] = in vitro; compared with ATA; Kamat et al. 1997; cited from earlier work

In the case of O=C(O)CCCCC1CCSS1 (stereo not drawn) [LA, alpha-lipoic acid], the “24 hour raw pork loin pH” value (swine [1]; Line 1 ave., 500 ppm in diet) was 6.00^b, the “24 hour raw pork loin pH” value (swine [1]; Line 2 ave., 500 ppm in diet) was 5.90^b and the “24 hour raw pork loin pH” value (swine [1]; Line 3 ave., 500 ppm in diet) was 5.99^c. For the same compound, the “24 hour raw pork loin pH” value (swine [1]; Overall ave. of three genetic lines, 500 ppm in diet) was 5.99^b, the “24 hour raw pork loin pH, Increase vs. Control” value (swine [1]; 500 ppm in diet) was 0.20 and the “raw pork loin color, Minolta L* value” (swine [2]; Line 1 ave., 500 ppm in diet) was 52.0. The “raw pork loin color, Minolta L* value” (swine [2]; Line 2 ave., 500 ppm in diet) was 50.9, the “raw pork loin color, Minolta L* value” (swine [2]; Line 3 ave., 500 ppm in diet) was 49.1 and the “raw pork loin color, Minolta L* value” (swine [2]; overall ave., 500 ppm in diet) was 50.7. For the same compound, the Color Score (swine [3]) was “decrease” and the “Loin pH” value (swine [3]) was “increase”.
With CC(=O)N[C@@H](CS)C(=O)O [NAC, N-acetylcysteine] the “24 hour raw pork loin pH” value (swine [1]; Line 1 ave., 1,000 ppm in diet) was 6.07^b, the “24 hour raw pork loin pH” value (swine [1]; Line 2 ave., 1,000 ppm in diet) was 5.78^a and the “24 hour raw pork loin pH” value (swine [1]; Line 3 ave., 1,000 ppm in diet) was 5.93^c. For the same compound, the “24 hour raw pork loin pH” value (swine [1]; Overall ave. of three genetic lines, 1,000 ppm in diet) was 5.93^b, the “24 hour raw pork loin pH, Increase vs. Control” value (swine [1]; 1,000 ppm in diet) was 0.16 and the “raw pork loin color, Minolta L* value” (swine [2]; Line 1 ave., 1,000 ppm in diet) was 49.7. The “raw pork loin color, Minolta L* value” (swine [2]; Line 2 ave., 1,000 ppm in diet) was 53.0, the “raw pork loin color, Minolta L* value” (swine [2]; Line 3 ave., 1,000 ppm in diet) was 49.0 and the “raw pork loin color, Minolta L* value” (swine [2]; overall ave., 1,000 ppm in diet) was 50.5.
In the case of CC(C)=CCC/C(C)=C/CC/C(C)=C/CC[C@]1(C)CCc2cc(O)c(C)c(C)c2O1 [gamma-tocotrienol], the antioxidant activity [4] is listed as “greater antioxidant activity than ATA”.
For alpha-tocotrienol, the antioxidant activity [4] is listed as “greater antioxidant activity than ATA”.
